Measured values reported in patent US20250163119A1, “COMPOUNDS FOR THE TREATMENT OF DIABETES OR OBESITY” (Eli Lilly and Company, priority 2023, published 2025).
*1 amine or outer side, *2 acyl side, *3 side chain or, on linkers, in order; H or OH if unused. Where a SMILES comes first, the peptide text is derived from it. Side-chain parts run from the residue outwards. [ ]: non-standard residue; d: D form. The star is where a group is joined. C20 diacid = O=C(O)CCCCCCCCCCCCCCCCCCC(=O)*; γGlu = O=C(O)[C@H](CCC(=O)[*:2])N[*:1]; NMeI = CC[C@H](C)[C@H](NC)C(=O)O; αMeL = CC(C)C[C@](C)(N)C(=O)O; AEEA = NCCOCCOCC(=O)O; Aib = CC(C)(N)C(=O)O

Columns and labels:
human CRHR1 = target: T1, human CRHR1 (Homo sapiens, UniProt P34998); experiment: Human CRHR1 cAMP assay (HTRF) in HEK293 cells stably expressing human CRHR1; assay type: cell-based; conditions: HEK293 cells overexpressing human CRHR1; relative EC50, maximum 66 nM human UCN1; mean ± SE; read-out: hCRHR1 cAMP EC50 (pM, ± SE)
T1 construct: expressed in transfected cells
T1 sequence (P34998 24-415): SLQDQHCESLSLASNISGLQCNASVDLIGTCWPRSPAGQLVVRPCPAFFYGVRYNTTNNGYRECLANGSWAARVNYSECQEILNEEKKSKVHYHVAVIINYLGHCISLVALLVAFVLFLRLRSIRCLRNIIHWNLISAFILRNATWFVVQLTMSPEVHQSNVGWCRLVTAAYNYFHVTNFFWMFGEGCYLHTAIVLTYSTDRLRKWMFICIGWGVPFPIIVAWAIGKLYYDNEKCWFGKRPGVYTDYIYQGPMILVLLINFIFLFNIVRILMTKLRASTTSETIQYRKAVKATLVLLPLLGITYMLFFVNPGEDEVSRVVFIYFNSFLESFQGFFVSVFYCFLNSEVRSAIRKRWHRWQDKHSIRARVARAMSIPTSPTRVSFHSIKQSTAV
Outline: (§1)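 Frozen stable HEK293-CRHR1 or -CRHR2 cells are thawed into IBMX-containing (0.25 mM) casein/HEPES pH 7.4 MEM buffer. Peptide dilution series (1:3) are added, then CRHR1 cells sit 1 h at 37° C and CRHR2 cells 30 min at room temperature. Intracellular cAMP is then measured by HTRF.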

human CRHR2 = target: T2, human CRHR2 (Homo sapiens, UniProt Q13324); experiment: Human CRHR2 cAMP assay (HTRF) in HEK293 cells stably expressing human CRHR2; assay type: cell-based; conditions: HEK293 cells overexpressing human CRHR2; relative EC50, maximum 10 nM human UCN2; mean ± SE; read-out: hCRHR2 cAMP EC50 (pM, ± SE)
T2 construct: expressed in transfected cells
T2 sequence (Q13324 1-438 isoform Q13324-2): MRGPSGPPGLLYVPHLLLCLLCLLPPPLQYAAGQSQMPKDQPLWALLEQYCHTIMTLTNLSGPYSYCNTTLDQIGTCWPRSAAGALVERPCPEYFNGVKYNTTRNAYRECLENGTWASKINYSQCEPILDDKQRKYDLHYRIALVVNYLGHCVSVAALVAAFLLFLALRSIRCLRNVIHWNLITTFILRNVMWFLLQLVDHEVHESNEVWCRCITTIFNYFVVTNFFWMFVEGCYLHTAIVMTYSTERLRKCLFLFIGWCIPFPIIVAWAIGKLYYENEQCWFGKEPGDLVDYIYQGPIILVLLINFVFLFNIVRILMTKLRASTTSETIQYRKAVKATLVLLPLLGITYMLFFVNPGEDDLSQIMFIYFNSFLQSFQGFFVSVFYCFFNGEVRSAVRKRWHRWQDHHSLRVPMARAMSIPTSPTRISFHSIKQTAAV
Outline: as §1

| SMILES | EC50 (human CRHR1) | EC50 (human CRHR2) |
| --- | --- | --- |
| CC[C@H](C)[C@H](NC(C)=O)C(=O)N[C@H](C(=O)N[C@H](C(=O)N[C@@H](CO)C(=O)N[C@@](C)(CC(C)C)C(=O)N[C@@H](CC(=O)O)C(=O)N[C@@H](C(=O)N1CCC[C@H]1C(=O)N[C@H](C(=O)NCC(=O)N[C@@](C)(CC(C)C)C(=O)N[C@@H](CC(C)C)C(=O)N[C@@H](CCC(N)=O)C(=O)N[C@H](C(=O)N[C@@H](CCCCN)C(=O)N[C@@H](CC(C)C)C(=O)N[C@@H](CCC(=O)O)C(=O)N[C@@H](CCC(N)=O)C(=O)N[C@@H](CCC(=O)O)C(=O)N[C@@H](CCCNC(=N)N)C(=O)N[C@@H](C)C(=O)N[C@@H](CCC(=O)O)C(=O)N[C@@H](CCCCN)C(=O)N[C@@H](C)C(=O)N[C@@H](CCCNC(=N)N)C(=O)N[C@@H](CCC(N)=O)C(=O)N[C@@H](CCC(N)=O)C(=O)N[C@@H](C)C(=O)N[C@@H](CCCCNC(=O)COCCOCCNC(=O)COCCOCCNC(=O)CC[C@H](NC(=O)CCCCCCCCCCCCCCCCCCC(=O)O)C(=O)O)C(=O)N[C@@H](CCC(=O)O)C(=O)N[C@@H](CC(N)=O)C(=O)N[C@H](C(=O)N[C@@H](CCC(=O)O)C(=O)N[C@H](C(=O)N[C@@H](CC(C)C)C(=O)N[C@@H](C)C(=O)N[C@@H](CCC(N)=O)C(=O)N[C@H](C(N)=O)C(C)C)[C@@H](C)CC)[C@@H](C)O)[C@@H](C)CC)[C@@H](C)O)C(C)C)[C@@H](C)O)C(C)C [SEQ ID NO: 29, Ac-IVTS αMeL D (D-Val) PTG αMeL LQIKLEQERAEKARQ QAK((2-[2-(2-Amino-ethoxy)-ethoxy]-acetyl)2-γE-CO-(CH2)18-CO2H)ENTEILAQV-NH2] (Ac-IVTS[αMeL]D[dV]PTG[αMeL]LQIKLEQERAEKARQQAK([AEEA-AEEA-γGlu-C20 diacid])ENTEILAQV-NH2) | > 1e+07 pM | 5.6 ± 0.4 pM |
| CC[C@H](C)[C@H](NC(C)=O)C(=O)N[C@H](C(=O)N[C@H](C(=O)N[C@@H](CO)C(=O)N[C@@](C)(CC(C)C)C(=O)N[C@@H](CC(=O)O)C(=O)N[C@@H](C(=O)N1CCC[C@H]1C(=O)N[C@H](C(=O)NC(C)(C)C(=O)N[C@@](C)(CC(C)C)C(=O)N[C@@H](CC(C)C)C(=O)N[C@@H](CCC(N)=O)C(=O)N[C@H](C(=O)N[C@@H](CCCCN)C(=O)N[C@@H](CC(C)C)C(=O)N[C@@H](CCC(=O)O)C(=O)N[C@@H](CCC(N)=O)C(=O)N[C@@H](CCC(=O)O)C(=O)N[C@@H](CCCNC(=N)N)C(=O)N[C@@H](C)C(=O)N[C@@H](CCC(=O)O)C(=O)N[C@@H](CCCCN)C(=O)N[C@@H](C)C(=O)N[C@@H](CCCNC(=N)N)C(=O)N[C@@H](CCC(N)=O)C(=O)N[C@@H](CCC(N)=O)C(=O)N[C@@H](C)C(=O)N[C@@H](CCCCNC(=O)COCCOCCNC(=O)COCCOCCNC(=O)CC[C@H](NC(=O)CCCCCCCCCCCCCCCCCCC(=O)O)C(=O)O)C(=O)N[C@@H](CCC(=O)O)C(=O)N[C@@H](CC(N)=O)C(=O)N[C@H](C(=O)N[C@@H](CCC(=O)O)C(=O)N[C@H](C(=O)N[C@@H](CC(C)C)C(=O)N[C@@H](C)C(=O)N[C@@H](CCC(N)=O)C(=O)N[C@H](C(N)=O)C(C)C)[C@@H](C)CC)[C@@H](C)O)[C@@H](C)CC)[C@@H](C)O)C(C)C)[C@@H](C)O)C(C)C [SEQ ID NO: 41, Ac-IVTS αMeL D (D-Val) PT Aib αMeL LQIKLEQERAEKARQQAK((2-[2-(2-Amino-ethoxy)-ethoxy]-acetyl)2-γE-CO-(CH2)18-CO2H)ENTEILAQV-NH2] (Ac-IVTS[αMeL]D[dV]PT[Aib][αMeL]LQIKLEQERAEKARQQAK([AEEA-AEEA-γGlu-C20 diacid])ENTEILAQV-NH2) | 3.7e+06 pM | 7 ± 0.9 pM |
| CC[C@H](C)[C@H](NC)C(=O)N[C@H](C(=O)N[C@H](C(=O)N[C@@H](CO)C(=O)N[C@@H](CC(C)C)C(=O)N[C@@H](CC(=O)O)C(=O)N[C@H](C(=O)N1CCC[C@H]1C(=O)N[C@H](C(=O)NCC(=O)N[C@@](C)(CC(C)C)C(=O)N[C@@H](CC(C)C)C(=O)N[C@@H](CCC(N)=O)C(=O)N[C@@H](CCCCN)C(=O)N[C@@H](CC(C)C)C(=O)N[C@H](C(=O)N[C@@H](CCC(=O)O)C(=O)N[C@@H](CCC(N)=O)C(=O)N[C@@H](CCC(=O)O)C(=O)N[C@@H](CCCCN)C(=O)N[C@@H](CCC(N)=O)C(=O)N[C@@H](CCC(=O)O)C(=O)N[C@@H](CCCCN)C(=O)N[C@@H](CCC(=O)O)C(=O)N[C@@H](CCCCN)C(=O)N[C@@H](CCC(N)=O)C(=O)N[C@@H](CCC(N)=O)C(=O)N[C@@H](C)C(=O)N[C@@H](CCCCNC(=O)COCCOCCNC(=O)COCCOCCNC(=O)CC[C@H](NC(=O)CCCCCCCCCCCCCCCCCCC(=O)O)C(=O)O)C(=O)N[C@@H](CCC(=O)O)C(=O)N[C@@H](CC(N)=O)C(=O)N[C@H](C(=O)N[C@@H](CCC(=O)O)C(=O)N[C@H](C(=O)N[C@@H](CC(C)C)C(=O)N[C@@H](C)C(=O)N[C@@H](CCC(N)=O)C(=O)N[C@H](C(N)=O)C(C)C)[C@@H](C)CC)[C@@H](C)O)[C@@H](C)CC)[C@@H](C)CC)C(C)C)[C@@H](C)O)C(C)C [SEQ ID NO: 49, (NMeI) VTSLDVPIG αMeL LQKLIEQEKQEKEKQQAK((2-[2-(2-Amino-ethoxy)-ethoxy]-acetyl)2-γE-CO-(CH2)18-CO2H)ENTEILAQV-NH2] (H-[NMeI]VTSLDVPIG[αMeL]LQKLIEQEKQEKEKQQAK([AEEA-AEEA-γGlu-C20 diacid])ENTEILAQV-NH2) | > 1e+07 pM | 6.6 ± 0.9 pM |
| CC[C@H](C)[C@H](NC)C(=O)N[C@H](C(=O)N[C@H](C(=O)N[C@@H](CO)C(=O)N[C@@H](CC(C)C)C(=O)N[C@@H](CC(=O)O)C(=O)N[C@H](C(=O)N1CCC[C@H]1C(=O)N[C@H](C(=O)NCC(=O)N[C@@](C)(CC(C)C)C(=O)N[C@@H](CC(C)C)C(=O)N[C@@H](CCC(N)=O)C(=O)N[C@@H](CCCCN)C(=O)N[C@@H](CC(C)C)C(=O)N[C@@H](CC(C)C)C(=O)N[C@@H](CCC(=O)O)C(=O)N[C@@H](CCC(N)=O)C(=O)N[C@@H](CCC(=O)O)C(=O)N[C@@H](CCCNC(=N)N)C(=O)N[C@@H](C)C(=O)N[C@@H](CCC(=O)O)C(=O)N[C@@H](CCCCN)C(=O)N[C@@H](C)C(=O)N[C@@H](CCCNC(=N)N)C(=O)N[C@@H](CCC(N)=O)C(=O)N[C@@H](CCC(N)=O)C(=O)N[C@@H](C)C(=O)N[C@@H](CCCCNC(=O)COCCOCCNC(=O)COCCOCCNC(=O)CC[C@H](NC(=O)CCCCCCCCCCCCCCCCCCC(=O)O)C(=O)O)C(=O)N[C@@H](CCC(=O)O)C(=O)N[C@@H](C)C(=O)N[C@@H](C)C(=O)N[C@@H](CCC(=O)O)C(=O)N[C@H](C(=O)N[C@@H](CC(C)C)C(=O)N[C@@H](C)C(=O)N[C@@H](CCC(N)=O)C(=O)N[C@H](C(N)=O)C(C)C)[C@@H](C)CC)[C@@H](C)CC)C(C)C)[C@@H](C)O)C(C)C [SEQ ID NO: 50, (NMeI) VTSLDVPIG αMeL LQKLLEQERAEKARQQAK((2-[2-(2-Amino-ethoxy)-ethoxy]-acetyl)2-γE-CO-(CH2)18-CO2H)EAAEILAQV-NH2] (H-[NMeI]VTSLDVPIG[αMeL]LQKLLEQERAEKARQQAK([AEEA-AEEA-γGlu-C20 diacid])EAAEILAQV-NH2) | > 1e+07 pM | 22.4 ± 3.6 pM |
| CC[C@H](C)[C@H](NC)C(=O)N[C@H](C(=O)N[C@@H](CC(C)C)C(=O)N[C@@H](CO)C(=O)N[C@@H](CC(C)C)C(=O)N[C@@H](CC(=O)O)C(=O)N[C@H](C(=O)N1CCC[C@H]1C(=O)N[C@H](C(=O)NCC(=O)N[C@@H](CC(C)C)C(=O)N[C@@H](CC(C)C)C(=O)N[C@@H](CCC(N)=O)C(=O)N[C@H](C(=O)N[C@@H](CC(C)C)C(=O)N[C@@H](CC(C)C)C(=O)N[C@@H](CCC(=O)O)C(=O)N[C@@H](CCC(N)=O)C(=O)N[C@@H](CCC(=O)O)C(=O)N[C@@H](CCCCN)C(=O)N[C@@H](CCC(N)=O)C(=O)N[C@@H](CCC(=O)O)C(=O)N[C@@H](CCCCN)C(=O)N[C@@H](CCC(=O)O)C(=O)N[C@@H](CCCCN)C(=O)N[C@@H](CCC(N)=O)C(=O)N[C@@H](CCC(N)=O)C(=O)N[C@@H](C)C(=O)N[C@@H](CCCCNC(=O)COCCOCCNC(=O)COCCOCCNC(=O)CC[C@H](NC(=O)CC[C@H](NC(=O)CCCCCCCCCCCCCCCCCCC(=O)O)C(=O)O)C(=O)O)C(=O)N[C@H](C(=O)N[C@@H](CC(N)=O)C(=O)N[C@@H](C)C(=O)N[C@@H](CCC(N)=O)C(=O)N[C@H](C(=O)N[C@@H](CC(C)C)C(=O)N[C@@H](C)C(=O)N[C@@H](CCC(N)=O)C(=O)N[C@H](C(N)=O)C(C)C)[C@@H](C)CC)[C@@H](C)O)[C@@H](C)CC)[C@@H](C)CC)C(C)C)C(C)C [SEQ ID NO: 54] (H-[NMeI]VLSLDVPIGLLQILLEQEKQEKEKQQAK([AEEA-AEEA-γGlu-γGlu-C20 diacid])TNAQILAQV-NH2) | > 1e+07 pM | 29.8 ± 2.5 pM |
